Values joined by “and” are separate entries in the source; they are usually repeats but may differ in a detail not shown here. Equal values may be shown once. Toxic doses and inconclusive results are not listed.
Tested on: P388 leukemia ip, CD2F1 mice, survival T/C
Assay: NCI In Vivo Anticancer Drug Screen. Data for tumor model P388 Leukemia (intraperitoneal) in CD2F1 (CDF1) mice
Settings: endpoint: median survival time, higher = longer survival
How it was run: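 Mice carrying the transplanted tumor received test compound or vehicle. Survival was recorded in each group, and the value is the treated-group measurement divided by that of the vehicle-treated control group.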

[1] = dose: 25.0 mg/kg/injection, schedule: Q01DX009 (ip), vehicle: saline with Tween-80
[2] = dose: 50.0 mg/kg/injection, schedule: Q01DX005 (ip), vehicle: Klucel (hydroxypropylcellulose) (HPC)
[3] = dose: 100.0 mg/kg/injection, schedule: Q01DX005 (ip), vehicle: Klucel (hydroxypropylcellulose) (HPC)
[4] = dose: 200.0 mg/kg/injection, schedule: Q01DX005 (ip), vehicle: Klucel (hydroxypropylcellulose) (HPC)
[5] = dose: 25.0 mg/kg/injection, schedule: Q01DX005 (ip), vehicle: saline with Tween-80
[6] = dose: 50.0 mg/kg/injection, schedule: Q01DX005 (ip), vehicle: saline with Tween-80
[7] = dose: 100.0 mg/kg/injection, schedule: Q04DX003 (ip), vehicle: saline with Tween-80
[8] = dose: 200.0 mg/kg/injection, schedule: Q04DX003 (ip), vehicle: saline with Tween-80
[9] = dose: 100.0 mg/kg/injection, schedule: Q01DX001 (ip), vehicle: saline with Tween-80
[10] = dose: 60.0 mg/kg/injection, schedule: Q01DX005 (ip), vehicle: saline with Tween-80
[11] = dose: 120.0 mg/kg/injection, schedule: Q01DX005 (ip), vehicle: saline with Tween-80
[12] = dose: 12.5 mg/kg/injection, schedule: Q04DX003 (ip), vehicle: saline with Tween-80
[13] = dose: 25.0 mg/kg/injection, schedule: Q04DX003 (ip), vehicle: saline with Tween-80
[14] = dose: 50.0 mg/kg/injection, schedule: Q04DX003 (ip), vehicle: saline with Tween-80
[15] = dose: 200.0 mg/kg/injection, schedule: Q01DX001 (ip), vehicle: saline with Tween-80
[16] = dose: 400.0 mg/kg/injection, schedule: Q01DX001 (ip), vehicle: saline with Tween-80
[17] = dose: 100.0 mg/kg/injection, schedule: Q01DX005 (ip), vehicle: saline with Tween-80

For `COc1ccc(C2Oc3cc(O)c4c(=O)c5c(OC)cccc5oc4c3OC2CO)cc1O` (centres undefined), the T/C (dose: 6.25 mg/kg/injection, schedule: Q01DX009 (ip), vehicle: saline + alcohol) was 111 % of control, the T/C (dose: 12.5 mg/kg/injection, schedule: Q01DX009 (ip), vehicle: saline + alcohol) was 100 % of control and the T/C (dose: 25.0 mg/kg/injection, schedule: Q01DX009 (ip), vehicle: saline + alcohol) was 100 % of control.
`COc1ccc(C(=O)c2ccccc2)cc1OC` was tested, and the T/C [1] was 100 % of control, the T/C (dose: 50.0 mg/kg/injection, schedule: Q01DX009 (ip), vehicle: saline with Tween-80) was 100 % of control and the T/C (dose: 100.0 mg/kg/injection, schedule: Q01DX009 (ip), vehicle: saline with Tween-80) was 98 % of control. The T/C (dose: 200.0 mg/kg/injection, schedule: Q01DX009 (ip), vehicle: saline with Tween-80) was 98 % of control.
`COC1=C(C)[C@@H]2CC(=O)O[C@@H]3C[C@H]4CCCC[C@]4(C)[C@@H](C1=O)[C@@]32C` was tested, and the T/C [2] was 95 % of control, the T/C [3] was 92 % of control and the T/C [4] was 93 % of control.
In the case of `C=CCc1ccccc1OC`, the T/C (dose: 50.0 mg/kg/injection, schedule: Q04DX003 (ip), vehicle: saline) is reported as 100 % of control, the T/C (dose: 100.0 mg/kg/injection, schedule: Q04DX003 (ip), vehicle: saline) is reported as 95 % of control and the T/C (dose: 200.0 mg/kg/injection, schedule: Q04DX003 (ip), vehicle: saline) is reported as 100 % of control.
In the case of `CN1c2cc3ccccc3cc2N(C)c2cc3ccccc3cc21`, the T/C [2] is reported as 90 % of control and the T/C [4] is reported as 88 % of control.
For `c1ccc(-c2csc(=[N+]3CCCCC3)s2)cc1`, the T/C (dose: 6.25 mg/kg/injection, schedule: Q01DX009 (ip), vehicle: water) was 111 % of control and 117 % of control and 124 % of control.
In the case of `Cc1cc2ccccc2c[n+]1CCCCCCCCI`, the T/C (dose: 6.25 mg/kg/injection, schedule: Q01DX005 (ip), vehicle: saline with Tween-80) is reported as 110 % of control, the T/C (dose: 12.5 mg/kg/injection, schedule: Q01DX005 (ip), vehicle: saline with Tween-80) is reported as 115 % of control and the T/C [5] is reported as 110 % of control. The T/C [6] was 108 % of control.
For `C/C(=C\C(=O)O)CC(=O)O`, the T/C [7] was 92 % of control, the T/C [8] was 97 % of control and the T/C (dose: 400.0 mg/kg/injection, schedule: Q04DX003 (ip), vehicle: saline with Tween-80) was 88 % of control.
With `COc1ccc(C(=O)NCCN2CCN3Cc4[nH]c5ccccc5c4CC3C2)cc1` (centres undefined) the T/C (dose: 25.0 mg/kg/injection, schedule: Q01DX001 (ip), vehicle: saline with Tween-80) was 95 % of control, the T/C (dose: 50.0 mg/kg/injection, schedule: Q01DX001 (ip), vehicle: saline with Tween-80) was 97 % of control and the T/C [9] was 95 % of control and 98 % of control.
In the case of `S=c1c(-c2ccccc2)cnc2sccn12`, the T/C [10] is reported as 100 % of control, the T/C [11] is reported as 96 % of control and the T/C (dose: 240.0 mg/kg/injection, schedule: Q01DX005 (ip), vehicle: saline with Tween-80) is reported as 98 % of control.
For `CC(C)CNC(=O)OCc1c(COC(=O)NCC(C)C)c(-c2ccc(Cl)c(Cl)c2)n2c1CCC2`, the T/C (dose: 6.25 mg/kg/injection, schedule: Q01DX009 (ip), vehicle: distilled water + Tween-80) was 111 % of control and 116 % of control, the T/C (dose: 25.0 mg/kg/injection, schedule: Q01DX009 (ip), vehicle: distilled water + Tween-80) was 158 % of control and 171 % of control and the T/C (dose: 50.0 mg/kg/injection, schedule: Q01DX009 (ip), vehicle: distilled water + Tween-80) was 182 % of control and 198 % of control. The T/C (dose: 100.0 mg/kg/injection, schedule: Q01DX009 (ip), vehicle: distilled water + Tween-80) was 180 % of control and the T/C (dose: 200.0 mg/kg/injection, schedule: Q01DX009 (ip), vehicle: distilled water + Tween-80) was 100 % of control and 92 % of control.
With `C/C(=N\NC(N)=S)c1cccc(/C(C)=N/NC(N)=S)n1` the T/C [12] was 91 % of control, the T/C [13] was 93 % of control and the T/C [14] was 89 % of control.
For `COC(=O)NC(=S)Nc1nncs1`, the T/C [13] was 101 % of control, the T/C [14] was 105 % of control and the T/C [7] was 105 % of control.
With `Cc1cc2ccccc2c(N=Cc2cc(Br)cc(Br)c2O)c1C#N` the T/C [9] was 95 % of control, the T/C [15] was 98 % of control and the T/C [16] was 112 % of control.
With `O=C1NC(=O)C2(CCCc3ccc(N(CCCl)CCCl)cc32)N1` (centres undefined) the T/C (dose: 0.38 mg/kg/injection, schedule: Q04DX003 (ip), vehicle: saline with Tween-80) was 108 % of control, the T/C (dose: 0.75 mg/kg/injection, schedule: Q04DX003 (ip), vehicle: saline with Tween-80) was 104 % of control and the T/C (dose: 1.5 mg/kg/injection, schedule: Q04DX003 (ip), vehicle: saline with Tween-80) was 104 % of control. The T/C (dose: 12.5 mg/kg/injection, schedule: Q01DX009 (ip), vehicle: saline with Tween-80) was 159 % of control, the T/C [1] was 172 % of control and the T/C [14] was 181 % of control. The T/C [7] was 181 % of control and the T/C (dose: 132.0 mg/kg/injection, schedule: Q04DX003 (ip), vehicle: saline with Tween-80) was 177 % of control.
In the case of `CC(C)c1ccc(C2C3CCN2CC3)cc1` (centres undefined), the T/C (dose: 50.0 mg/kg/injection, schedule: Q01DX009 (ip), vehicle: saline) is reported as 91 % of control.
In the case of `CN1C=CC=CC1=C1C(=O)c2ccccc2C1=O`, the T/C [2] is reported as 96 % of control, the T/C [3] is reported as 104 % of control and the T/C [4] is reported as 107 % of control.
In the case of `O=S1(=O)CS/C(=N\C(=S)N(c2ccccc2)c2ccccc2)N1c1ccccc1`, the T/C (dose: 3.13 mg/kg/injection, schedule: Q04DX003 (ip), vehicle: saline with Tween-80) is reported as 106 % of control, the T/C (dose: 6.25 mg/kg/injection, schedule: Q04DX003 (ip), vehicle: saline with Tween-80) is reported as 99 % of control and the T/C [12] is reported as 94 % of control and 95 % of control. The T/C [14] was 86 % of control and the T/C [8] was 93 % of control.
`Nc1ccc2nc3ccccc3c(NCCCCCCCCNc3c4ccccc4nc4ccc(N)cc34)c2c1` was tested, and the T/C (dose: 2.5 mg/kg/injection, schedule: Q01DX009 (ip), vehicle: water) was 160 % of control and the T/C (dose: 5.0 mg/kg/injection, schedule: Q01DX009 (ip), vehicle: water) was 160 % of control.
In the case of `Cc1cccc(Cl)c1NC(=O)NCCCN1CCCCC1C` (centres undefined), the T/C [10] is reported as 94 % of control and the T/C [11] is reported as 87 % of control.
For `O=C(O)c1cccc2c1C(=O)N(c1ccc3c(c1)Cc1ccccc1-3)C2=O`, the T/C (dose: 25.0 mg/kg/injection, schedule: Q01DX005 (ip), vehicle: Klucel (hydroxypropylcellulose) (HPC)) was 97 % of control, the T/C [2] was 98 % of control and the T/C [3] was 95 % of control. For the same compound, the T/C [4] was 96 % of control.
In the case of `C[C@@]12N[C@H]3S[C@]1(C)c1ccccc1N2C[C@@H]3C#N`, the T/C [5] is reported as 99 % of control, the T/C [6] is reported as 86 % of control and 94 % of control and the T/C [17] is reported as 96 % of control.
In the case of `COC(=O)c1cccc(OCC(=O)Nc2ccccc2)c1`, the T/C [9] is reported as 100 % of control, the T/C [15] is reported as 100 % of control and the T/C [16] is reported as 90 % of control.
For `C#CC(C)C(C(C)=O)C(C)=O.[C-]#[O+].[C-]#[O+].[C-]#[O+].[C-]#[O+].[C-]#[O+].[C-]#[O+].[Co].[Co]` (centres undefined), the T/C (dose: 3.12 mg/kg/injection, schedule: Q01DX005 (ip), vehicle: Klucel (hydroxypropylcellulose) (HPC)) was 104 % of control, the T/C (dose: 6.25 mg/kg/injection, schedule: Q01DX005 (ip), vehicle: Klucel (hydroxypropylcellulose) (HPC)) was 94 % of control and the T/C (dose: 12.5 mg/kg/injection, schedule: Q01DX005 (ip), vehicle: Klucel (hydroxypropylcellulose) (HPC)) was 111 % of control.
`CC1(C)C(=O)C2(CCCCC2)C1N1CCCCC1` (centres undefined) was tested, and the T/C (dose: 50.0 mg/kg/injection, schedule: Q01DX009 (ip), vehicle: Klucel (hydroxypropylcellulose) (HPC)) was 96 % of control, the T/C (dose: 100.0 mg/kg/injection, schedule: Q01DX009 (ip), vehicle: Klucel (hydroxypropylcellulose) (HPC)) was 98 % of control and the T/C (dose: 200.0 mg/kg/injection, schedule: Q01DX009 (ip), vehicle: Klucel (hydroxypropylcellulose) (HPC)) was 107 % of control.
For `CCCCCCc1cc(C(=O)NN)c2ccccc2n1`, the T/C [2] was 102 % of control, the T/C [3] was 99 % of control and the T/C [4] was 96 % of control.
`Cc1ccc(/C=N/n2c(-c3ccccc3Cl)nc3ccccc3c2=O)cc1` was tested, and the T/C [6] was 96 % of control, the T/C [17] was 93 % of control and the T/C (dose: 200.0 mg/kg/injection, schedule: Q01DX005 (ip), vehicle: saline with Tween-80) was 91 % of control.
For `O=C1COCC(=O)OCCOCCOCCOCCO1`, the T/C (dose: 100.0 mg/kg/injection, schedule: Q04DX003 (ip), vehicle: Klucel (hydroxypropylcellulose) (HPC)) was 99 % of control, the T/C (dose: 200.0 mg/kg/injection, schedule: Q04DX003 (ip), vehicle: Klucel (hydroxypropylcellulose) (HPC)) was 102 % of control and the T/C (dose: 400.0 mg/kg/injection, schedule: Q04DX003 (ip), vehicle: Klucel (hydroxypropylcellulose) (HPC)) was 99 % of control.

— PubChem BioAssay AID330 (DTP/NCI, 2004)
